# Laboratory results: patent US9365583B2, “Substituted pyrazoles and uses thereof” (Genentech, Inc., priority 2013, dated 2016)
# Biological target: T1, N-terminally GST-tagged DLK (catalytic domain amino acid 1-520) (Homo sapiens, UniProt Q12852)
# T1 construct: N-terminally GST-tagged DLK (catalytic domain amino acid 1-520); purchased Carna Bioscience
# T1 sequence (Q12852 1-520): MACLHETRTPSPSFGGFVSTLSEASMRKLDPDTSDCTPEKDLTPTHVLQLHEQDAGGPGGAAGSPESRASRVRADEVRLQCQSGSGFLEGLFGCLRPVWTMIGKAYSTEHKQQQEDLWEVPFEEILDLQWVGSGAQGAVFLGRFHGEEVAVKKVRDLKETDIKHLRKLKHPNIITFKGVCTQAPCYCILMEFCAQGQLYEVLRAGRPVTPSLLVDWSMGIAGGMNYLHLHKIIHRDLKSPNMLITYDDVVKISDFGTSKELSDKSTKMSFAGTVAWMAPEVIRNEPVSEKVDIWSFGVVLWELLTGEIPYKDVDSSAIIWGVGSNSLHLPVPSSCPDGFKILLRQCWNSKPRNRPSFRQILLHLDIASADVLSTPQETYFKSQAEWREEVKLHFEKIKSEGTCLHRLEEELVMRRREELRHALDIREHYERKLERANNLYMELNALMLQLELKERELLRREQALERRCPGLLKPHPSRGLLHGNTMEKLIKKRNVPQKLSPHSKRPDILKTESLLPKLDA
# Assay: DLK TR-FRET inhibition assay
# Format: biochemical
# Details: 5 nM GST-DLK, 40 nM HIS-MKK4 K131M substrate, 30 μM ATP, 60 minutes at ambient temperature
# Outline: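 Phosphorylated MKK4 was quantified by TR-FRET (Eu-labelled anti-phospho-MKK4, D2 anti-HIS; 3 h, 665 and 615 nm emission) after EDTA quench. Reactions held 5 nM GST-tagged DLK catalytic domain (1-520), 40 nM HIS-MKK4 K131M substrate, 30 μM ATP and compound (3-fold series from 20 uM), 60 min, room temperature, pH 7.5.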
row,Structure (SMILES),Ki [nM]
1,"CCN1CCN([C@H]2C[C@@H]3[C@H](C2)[C@H]3c2cc(-c3cnc(N)c(OC(F)(F)F)c3)nn2C(C)C)CC1 [compound 14, 5-(5-((1R,3r,5S,6r)-3-(4-ethylpiperazin-1-yl)bicyclo[3.1.0]hexan-6-yl)-1-isopropyl-1H-pyrazol-3-yl)-3-(trifluoromethoxy) pyridin-2-amine]",1.72
2,"Nc1ncc(-c2cc([C@H]3[C@@H]4C[C@@H](N5CCCOCC5)C[C@@H]43)n(CC(F)F)n2)cc1OC(F)F [compound 232, 5-(5-((1R,3s,5S,6r)-3-(1,4-oxazepan-4-yl)bicyclo[3.1.0]hexan-6-yl)-1-(2,2-difluoroethyl)-1H-pyrazol-3-yl)-3-(difluoromethoxy) pyridin-2-amine]",1.1
3,"CC(C)n1nc(-c2cnc(N)c(C(F)(F)F)c2)cc1[C@H]1[C@@H]2C[C@H](N3CCO[C@@H](C)C3)C[C@@H]21 [compound 108, 5-(1-isopropyl-5-((1R,3r,5S,6S)-3-((S)-2-methylmorpholino)bicyclo[3.1.0]hexan-6-yl)-1H-pyrazol-3-yl)-3-(trifluoromethyl) pyridin-2-amine]",1.6
4,"CC(C)n1nc(-c2cnc(N)c(C(F)(F)F)c2)cc1[C@@H]1[C@H]2CC[C@H](O)[C@H]21 (single isomer, unassigned) [compound 142, 6-(3-(6-amino-5-trifluoromethylpyridin-3-yl)-1-isopropyl-1H-pyrazol-5-yl)bicyclo[3.1.0]hexan-2-ol]",62.2
5,"CC(C)n1nc(-c2cnc(N)c(OC(F)(F)F)c2)cc1[C@H]1[C@@H]2C[C@H](N3CCCN(C)CC3)C[C@@H]21 [compound 204, 5-(1-isopropyl-5-((1R,3r,5S,6r)-3-(4-methyl-1,4-diazepan-1-yl)bicyclo[3.1.0]hexan-6-yl)-1H-pyrazol-3-yl)-3-(trifluoromethoxy) pyridin-2-amine]",1.2
6,"CC(C)n1nc(-c2cnc(N)c(C(F)(F)F)c2)cc1[C@H]1[C@@H]2C[C@H](N3CCCN(C)CC3)C[C@@H]21 [compound 211, 5-(1-isopropyl-5-((1R,3r,5S,6r)-3-(4-methyl-1,4-diazepan-1-yl)bicyclo[3.1.0]hexan-6-yl)-1H-pyrazol-3-yl)-3-(trifluoromethyl) pyridin-2-amine]",3.2
7,"CC(C)n1nc(-c2cnc(N)c(OC(F)F)c2)cc1[C@@H]1[C@@H]2C[C@@H](O)C[C@@H]21 [compound 123, (1R,3s,5S,6s)-6-(3-(6-amino-5-(difluoromethoxy)pyridin-3-yl)-1-isopropyl-1H-pyrazol-5-yl) bicyclo[3.1.0]hexan-3-ol]",> 321
8,"CC(C)n1nc(-c2cnc(N)c(OC(F)F)c2)cc1[C@H]1[C@@H]2C[C@@H](N3CCN(CC(F)F)CC3)C[C@@H]21 [compound 257, 5-(5-((1R,3s,5S,6r)-3-(4-(2,2-difluoro-ethyl)piperazin-1-yl)bicyclo [3.1.0]hexan-6-yl)-1-isopropyl-1H-pyrazol-3-yl)-3-(difluoromethoxy)pyridin-2-amine]",0.7
9,"CC(C)n1nc(-c2cnc(N)c(C(F)(F)F)c2)cc1[C@H]1[C@@H]2C[C@H](N3CC(F)(F)C3)C[C@@H]21 [compound 54, 5-(5-((1R,3r,5S,6r)-3-(3,3-difluoro-azetidin-1-yl)bicyclo[3.1.0]hexan-6-yl)-1-isopropyl-1H-pyrazol-3-yl)-3-(trifluoromethyl) pyridin-2-amine]",7.68
10,"CC(C)n1nc(-c2cnc(N)c(OC(F)F)c2)cc1[C@H]1[C@@H]2C[C@@H](OC3COC3)C[C@@H]21 [compound 231, 3-(difluoromethoxy)-5-(1-iso-propyl-5-((1R,3s,5S,6r)-3-(oxetan-3-yloxy)bicyclo[3.1.0]hexan-6-yl)-1H-pyrazol-3-yl)pyridin-2-amine]",5.5
11,"COCCO[C@H]1C[C@@H]2[C@H](C1)[C@H]2c1cc(-c2cnc(N)c(C(F)(F)F)c2)nn1C(C)C [compound 272, 5-(1-isopropyl-5-((1R,3r,5S,6r)-3-(2-methoxyethoxy)bicyclo [3.1.0]hexan-6-yl)-1H-pyrazol-3-yl)-3-(trifluoromethyl)pyridin-2-amine]",5.6
12,"CC(C)n1nc(-c2cnc(N)c(C(F)(F)F)c2)cc1[C@H]1[C@@H]2C[C@H](N3CCN[C@@H](C)C3)C[C@@H]21 [compound 234, 5-(1-isopropyl-5-((1R,3r,5S,6S)-3-((S)-3-methylpiperazin-1-yl)bicyclo[3.1.0]hexan-6-yl)-1H-pyrazol-3-yl)-3-(trifluoromethyl) pyridin-2-amine]",4.9

# Results, then the compound that gave them:
row,Ki [nM],Structure (SMILES)
1,4.5,"CC(C)n1nc(-c2cnc(N)c(OC(F)F)c2)cc1C1[C@H]2CC(N3CCOCC(F)C3)C[C@@H]12 (single isomer, unassigned) [compound 173]"
2,19,"CC(C)n1nc(-c2cnc(N)c(OCC(F)(F)F)c2)cc1[C@H]1[C@@H]2C[C@@H](N3CCOCC3)C[C@@H]21 [compound 96, 5-(1-isopropyl-5-((1R,3s,5S,6r)-3-morpholinobicyclo[3.1.0]hexan-6-yl)-1H-pyrazol-3-yl)-3-(2,2,2-trifluoroethoxy)pyridin-2-amine]"
3,2,"CO[C@@H]1CCN([C@@H]2C[C@@H]3[C@H](C2)[C@H]3c2cc(-c3cnc(N)c(OC(F)F)c3)nn2C(C)C)C1 [compound 194, 3-(difluoromethoxy)-5-(1-isopropyl-5-((1R,3s,5S,6R)-3-((R)-3-methoxypyrrolidin-1-yl)bicyclo [3.1.0]hcxan-6-yl)-1 H-pyrazol-3-yl)pyridin-2-amine]"
4,0.6,"CC(C)n1nc(-c2cnc(N)c(OC(F)F)c2)cc1[C@H]1[C@@H]2C[C@H](N3CCOC[C@@H]3C)C[C@@H]21 [compound 80, 3-(difluoromethoxy)-5-(1-isopropyl-5-((1R,3r,5S,6S)-3-((S)-3-methylmorpholino)bicyclo[3.1.0]hexan-6-yl)-1H-pyrazol-3-yl) pyridin-2-amine]"
5,0.4,"CC(C)n1nc(-c2cnc(N)c(OC(F)F)c2)cc1[C@H]1[C@@H]2C[C@H](N3CCN4CCCC4C3)C[C@@H]21 (stereo partly drawn) [compound 260, 3-(difluoromethoxy)-5-(5-((1R,3r,5S,6r)-3-(hexahydropyrrolo [1,2-a]pyrazin-2(1H)-yl)bicyclo [3.1.0]hexan-6-yl)-1-isopropyl-1H-pyrazol-3-yl)pyridin-2-amine]"
6,1.6,"CO[C@@H]1CCN([C@H]2C[C@@H]3[C@H](C2)[C@H]3c2cc(-c3cnc(N)c(OC(F)F)c3)nn2C(C)C)C1 [compound 186, 3-(difluoromethoxy)-5-(1-isopropyl-5-((1R,3r,5S,6R)-3-((R)-3-methoxypyrrolidin-1-yl)bicyclo [3.1.0]hexan-6-yl)-1H-pyrazol-3-yl)pyridin-2-amine]"
7,6.42,"CC(C)n1nc(-c2cnc(N)c(OC(F)F)c2)cc1[C@H]1[C@@H]2C[C@H](N3CCC(F)(F)C3)C[C@@H]21 [compound 89, 3-(difluoromethoxy)-5-(5-((1R,3r,5S,6r)-3-(3,3-difluoropyrrolidin-1-yl)bicyclo[3.1.0]hexan-6-yl)-1-isopropyl-1H-pyrazol-3-yl) pyridin-2-amine]"
8,1.4,"CC(C)n1nc(-c2cnc(N)c(OC(F)F)c2)cc1[C@H]1[C@@H]2C[C@@H](N3CC4CC(C3)O4)C[C@@H]21 [compound 278, 5-(5-((1R,3s,5S,6r)-3-(6-oxa-3-azabicyclo[3.1.1]heptan-3-yl)bicyclo[3.1.0]hexan-6-yl)-1-isopropyl-1H-pyrazol-3-yl)-3-(difluoromethoxy)pyridin-2-amine]"
9,1.58,"Nc1ncc(-c2cc([C@H]3[C@@H]4C[C@H](N5CCOCC5)C[C@@H]43)n(C3CCC3)n2)cc1OC(F)F [compound 134, 5-(1-cyclobutyl-5-((1R,3r,5S,6r)-3-morpholinobicyclo[3.1.0]hexan-6-yl)-1H-pyrazol-3-yl)-3-(difluoromethoxy)pyridin-2-amine]"
10,3.75,"CC(C)n1nc(-c2cnc(N)c(OC(F)F)c2)cc1[C@H]1[C@@H]2C[C@@H](N3CCO[C@H](C)C3)C[C@@H]21 [compound 74, 3-(difluoromethoxy)-5-(1-isopropyl-5-((1R,3s,5S,6R)-3-((R)-2-methylmorpholino)bicyclo[3.1.0]hexan-6-yl)-1H-pyrazol-3-yl) pyridin-2-amine]"
11,1.6,"Nc1ncc(-c2cc([C@H]3[C@@H]4C[C@@H](N5CCOCC5)C[C@@H]43)n(CC3CC3)n2)cc1OC(F)F [compound 279, 5-(1-(cyclopropylmethyl)-5-((1R,3s,5S,6r)-3-morpholinobicyclo [3.1.0]hexan-6-yl)-1H-pyrazol-3-yl)-3-(difluoromethoxy)pyridin-2-amine]"
12,1.6,"CC(C)n1nc(-c2cnc(N)c(OC(F)F)c2)cc1[C@H]1[C@@H]2C[C@H](N3CCOCC3)C[C@@H]21 [compound 86, 3-(difluoromethoxy)-5-(1-isopropyl-5-((1R,3r,5S,6r)-3-morpholino-bicyclo[3.1.0]hexan-6-yl)-1H-pyrazol-3-yl)pyridin-2-amine]"
